For 30 compounds, IC50 and inhibition results are on record in patent US7135466B2 (Kirin Beer Kabushiki Kaisha, priority 1999, dated 2006).

Experiment [1] addresses T1, c-kit (Homo sapiens, UniProt P10721).
T1 construct: MO7e (human megakaryocytic leukemia cell line) which had been arrested for 20 hr; endogenous in cells; host or cells: MO7e human megakaryocytic leukemia cell line
As to the kind of experiment: Inhibitory activity against c-kit autophosphorylation (MO7e cells, h-SCF). The class given is cell-based. The conditions noted are these: for IC50: MO7e cells, h-SCF 50 ng/ml, read-out: c-kit IC50; for inhibition at 1 µM: Mo7e, figure in parentheses in −( ), at 1000 nM. The method, boiled down: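 Growth-arrested (20 hr) MO7e; cpd in DMSO, 1 hr; h-SCF 50 ng/ml, 5 min; lyse. ELISA: anti-pTyr (PY-20) capture, anti-c-kit 1° Ab, HRP anti-rabbit 2° Ab, A450.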

In experiment [2] the target is T2, PDGF-Ra (Homo sapiens, UniProt P16234).
T2 construct: host or cells: G-292 human osteosarcoma cells
As to the kind of experiment: Inhibitory activity against PDGF-Ra phosphorylation by PDGF-AA stimulation using G292. It is filed as cell-based. Conditions: for IC50: Pharmacological Test Example 1, > means inhibition at indicated concentration not more than 50%, < and << not less than 50%, read-out: PDGF (E) IC50; for inhibition at 0.1 µM: G292, figure in parentheses in >100( ), at 100 nM, read-out: PDGF (E) inhibition (%) at 100 nM. The method, boiled down: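 Read-out: A450 from a sandwich ELISA (PY-20 capture, anti-PDGF-Ra detection, peroxidase colour) of lysates from G-292 cells given compound for 1 hr at 37 °C before a 5 min challenge with PDGF-AA at 50 ng/ml.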

T1 sequence (P10721 26-976): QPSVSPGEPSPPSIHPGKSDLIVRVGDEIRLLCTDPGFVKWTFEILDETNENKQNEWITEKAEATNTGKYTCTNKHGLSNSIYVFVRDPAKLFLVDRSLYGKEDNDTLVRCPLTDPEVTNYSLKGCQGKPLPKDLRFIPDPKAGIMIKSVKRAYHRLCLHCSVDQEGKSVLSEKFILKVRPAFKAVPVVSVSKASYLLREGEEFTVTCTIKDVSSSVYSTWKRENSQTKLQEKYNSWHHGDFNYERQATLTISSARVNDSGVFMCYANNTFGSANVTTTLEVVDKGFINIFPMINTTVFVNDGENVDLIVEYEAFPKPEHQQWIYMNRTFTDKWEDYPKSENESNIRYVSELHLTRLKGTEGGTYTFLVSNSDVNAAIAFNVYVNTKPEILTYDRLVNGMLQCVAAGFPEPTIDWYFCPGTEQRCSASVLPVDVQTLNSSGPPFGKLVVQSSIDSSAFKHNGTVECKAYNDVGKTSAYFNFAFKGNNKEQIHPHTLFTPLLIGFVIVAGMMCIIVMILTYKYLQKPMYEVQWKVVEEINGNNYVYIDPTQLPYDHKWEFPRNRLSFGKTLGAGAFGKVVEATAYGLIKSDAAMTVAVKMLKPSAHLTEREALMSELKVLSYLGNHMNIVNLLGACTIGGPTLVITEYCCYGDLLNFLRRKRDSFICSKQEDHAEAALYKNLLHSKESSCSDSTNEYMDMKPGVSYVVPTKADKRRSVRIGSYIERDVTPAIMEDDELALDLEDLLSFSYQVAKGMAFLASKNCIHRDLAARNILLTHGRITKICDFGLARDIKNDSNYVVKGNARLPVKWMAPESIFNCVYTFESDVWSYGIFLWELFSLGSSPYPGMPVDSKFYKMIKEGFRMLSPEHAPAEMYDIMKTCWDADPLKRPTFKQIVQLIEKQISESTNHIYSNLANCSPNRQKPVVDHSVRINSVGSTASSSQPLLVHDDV
T2 sequence (P16234 24-1089): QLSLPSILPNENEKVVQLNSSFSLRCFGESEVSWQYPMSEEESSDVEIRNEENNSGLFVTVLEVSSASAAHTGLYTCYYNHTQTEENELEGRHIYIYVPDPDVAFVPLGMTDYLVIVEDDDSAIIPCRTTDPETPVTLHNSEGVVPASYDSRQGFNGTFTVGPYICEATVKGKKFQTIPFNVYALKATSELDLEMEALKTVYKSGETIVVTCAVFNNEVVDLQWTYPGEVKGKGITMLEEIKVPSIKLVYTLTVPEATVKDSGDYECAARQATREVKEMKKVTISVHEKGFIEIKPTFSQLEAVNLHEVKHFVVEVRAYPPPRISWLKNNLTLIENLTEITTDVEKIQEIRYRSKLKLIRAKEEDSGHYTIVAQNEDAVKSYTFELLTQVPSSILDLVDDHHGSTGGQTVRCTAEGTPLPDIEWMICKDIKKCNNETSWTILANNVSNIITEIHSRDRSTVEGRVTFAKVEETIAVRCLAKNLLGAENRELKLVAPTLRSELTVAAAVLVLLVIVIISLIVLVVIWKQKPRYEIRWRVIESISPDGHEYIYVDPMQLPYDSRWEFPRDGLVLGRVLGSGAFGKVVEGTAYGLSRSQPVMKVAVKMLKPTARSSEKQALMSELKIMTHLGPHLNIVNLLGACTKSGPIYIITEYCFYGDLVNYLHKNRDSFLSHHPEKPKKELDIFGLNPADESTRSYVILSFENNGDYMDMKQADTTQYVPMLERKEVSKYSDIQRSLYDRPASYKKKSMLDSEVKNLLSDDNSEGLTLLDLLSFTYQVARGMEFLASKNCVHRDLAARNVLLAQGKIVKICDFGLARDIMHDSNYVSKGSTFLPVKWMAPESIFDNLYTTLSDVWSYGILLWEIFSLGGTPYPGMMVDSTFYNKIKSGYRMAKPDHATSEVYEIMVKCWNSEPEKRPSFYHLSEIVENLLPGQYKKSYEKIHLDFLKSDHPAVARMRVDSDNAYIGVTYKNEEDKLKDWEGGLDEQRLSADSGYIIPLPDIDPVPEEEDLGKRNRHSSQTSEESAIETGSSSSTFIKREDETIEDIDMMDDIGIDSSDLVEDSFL

With `CCOc1ccccc1C(C)OC(=O)Nc1ccc(Oc2ccnc3cc(OC)c(OC)cc23)c(C)c1C` (centres unmarked) [Example 128, 1-(2-Ethoxyphenyl)ethyl N-{4-[(6,7-dimethoxy-4-quinolyl)oxy]-2,3-dimethylphenyl}carbamate], the half-inhibitory concentration (IC50) in experiment [1] turned out to be 375 nM; in experiment [2], 26 nM.
As to `CCOc1ccccc1C(C)OC(=O)Nc1cc(C)c(Oc2ccnc3cc(OC)c(OC)cc23)cc1C` (centres unmarked) [Example 129, 1-(2-Ethoxyphenyl)-ethyl N-{4-[(6,7-dimethoxy-4-quinolyl)oxy]-2,5-dimethylphenyl}carbamate], the IC50 turned out to be 732 nM in experiment [1] and 64 nM in experiment [2].
For `CCOc1ccccc1C(C)OC(=O)Nc1ccc(Oc2ncnc3cc(OC)c(OC)cc23)cc1` (centres unmarked) [Example 130, 1-(2-Ethoxyphenyl)ethyl N-{4-[(6,7-dimethoxy-4-quinazolinyl)oxy]phenyl}carbamate] the same measures were 714 nM and under 10 nM.
With `CCOc1ccccc1C(C)OC(=O)Nc1ccc(Oc2ncnc3cc(OC)c(OC)cc23)cc1Cl` (centres unmarked) [Example 131, 1-(2-Ethoxyphenyl)ethyl N-{-chloro-4-[(6,7-dimethoxy-4-quinazolinyl)oxy]phenyl}carbamate], in experiment [1], the inhibition at 1 µM was found to be 40%. The IC50 in experiment [2] turned out to be 38 nM.
Take `COc1cc2nccc(Oc3ccc(NC(=O)OC(C)c4ccc(C)cc4)cc3)c2cc1OC` (centres unmarked) [Example 132, 1-(4-Methylphenyl)ethyl N-{4-[(6,7-dimethoxy-4-quinolyl)oxy]phenyl}carbamate]: the values for the IC50 in experiment [1] and in experiment [2] were 301 nM and 26 nM, respectively.
For `COc1cc2nccc(Oc3ccc(NC(=O)OC(C)c4ccc(C)cc4)c(C)c3C)c2cc1OC` (centres unmarked) [Example 133, 1-(4-Methylphenyl)ethyl N-{4-[(6,7-dimethoxy-4-quinolyl)oxy]-2,3-dimethylphenyl}carbamate], the IC50 in experiment [1] amounted to 206 nM; in experiment [2] it was 26 nM.
For the compound `COc1cc2nccc(Oc3cc(C)c(NC(=O)OC(C)c4ccc(C)cc4)cc3C)c2cc1OC` (centres unmarked) [Example 134, 1-(4-Methylphenyl)ethyl N-{4-[(6,7-dimethoxy-4-quinolyl)oxy]-2,5-dimethylphenyl}carbamate], the half-maximal inhibitory concentration (IC50) in experiment [1] was 944 nM; in experiment [2] it was over 100 nM. In addition, the inhibition at 0.1 µM in experiment [2] was 49%.
As to `COc1cc2ncnc(Oc3ccc(NC(=O)OC(C)c4ccc(C)cc4)cc3)c2cc1OC` (centres unmarked) [Example 135, 1-(4-Methylphenyl)ethyl N{4-[(6,7-dimethoxy-4-quinazolinyl)oxy]phenyl}carbamate], the IC50 was found to be 475 nM in experiment [1] and 18 nM in experiment [2].
As for `COc1cc2ncnc(Oc3ccc(NC(=O)OC(C)c4ccc(C)cc4)c(Cl)c3)c2cc1OC` (centres unmarked) [Example 136, 1-(4-Methylphenyl)ethyl N-{2-chloro-4-[(6,7-dimethoxy-4-quinazolinyl)oxy]phenyl}carbamate], the inhibition at 1 µM in experiment [1] was found to be 7%. The IC50 in experiment [2] turned out to be 43 nM.
Turning to `COc1cc2nccc(Oc3ccc(NC(=O)OCCSc4ccc(C)cc4)cc3)c2cc1OC` [Example 137, 3-[(4-Methylphenyl)sulfanyl]ethyl N-{4-[(dimethoxy-4-quinolyl)oxy]-phenyl}carbamate], the IC50 in experiment [1] was 233 nM; in experiment [2] it was under 10 nM.
Regarding `COc1cc2nccc(Oc3ccc(NC(=O)OCCSc4ccc(C)cc4)c(C)c3C)c2cc1OC` [Example 138, 3-[(4-Methylphenyl)sulfanyl]ethyl N-{4-[(6,7-dimethoxy-4-quinolyl)oxy]-2,3-dimethylphenyl}carbamate], the half-inhibitory concentration (IC50) in experiment [1] was 74 nM; in experiment [2], 17 nM.
Take `COc1cc2ncnc(Oc3ccc(NC(=O)OCCSc4ccc(C)cc4)cc3)c2cc1OC` [Example 140]: the half-inhibitory concentration (IC50) is 234 nM in experiment [1] and under 10 nM in experiment [2].
With `COc1cc2ncnc(Oc3ccc(NC(=O)OCCSc4ccc(C)cc4)c(Cl)c3)c2cc1OC` [Example 141, 3-[(4-Methylphenyl)sulfanyl]ethyl N-{2-chloro-4-[(6,7-dimethoxy-4-quinazolinyl)oxy]phenyl}carbamate], the inhibition at 1 µM in experiment [1] was found to be 26%. Further, the IC50 in experiment [2] is 36 nM.
Take `COc1cc2nccc(Oc3ccc(NC(=O)OCCCOc4ccccc4F)cc3)c2cc1OC` [Example 142, 3-(2-Fluorophenoxy)propyl N-{4-[(6,7-dimethoxy-4-quinolyl)oxy]phenyl}carbamate]: the IC50 was under 30 nM in experiment [1] and under 10 nM in experiment [2].
In the case of `COc1cc2nccc(Oc3ccc(NC(=O)OCCCOc4ccccc4F)c(C)c3C)c2cc1OC` [Example 143, 3-(2-Fluorophenoxy)propyl N-{4-[(6,7-dimethoxy-4-quinolyl)oxy]-2,3-dimethylphenyl}carbamate], the values for the IC50 in experiment [1] and in experiment [2] were under 30 nM and under 10 nM, respectively.
The corresponding values for `COc1cc2nccc(Oc3cc(C)c(NC(=O)OCCCOc4ccccc4F)cc3C)c2cc1OC` [Example 144, 3-(2-Fluorophenoxy)propyl N-{4-[(6,7-dimethoxy-4-quinolyl)oxy]-2,5-dimethylphenyl}carbamate] are 49 nM and 18 nM.
For `COc1cc2ncnc(Oc3ccc(NC(=O)OCCCOc4ccccc4F)cc3)c2cc1OC` [Example 145, 3-(2-Fluorophenoxy) propyl N-{4-[(6,7-dimethoxy-4-quinazolinyl)oxy]phenyl}carbamate] the same measures were under 30 nM and under 10 nM.
For `COc1cc2ncnc(Oc3ccc(NC(=O)OCCCOc4ccccc4F)c(C)c3C)c2cc1OC` [Example 146, 3-(2-Fluorophenoxy)propyl N-{4-[(6,7-dimethoxy-4-quinazolinyl)oxy]-2,3-dimethylphenyl}carbamate] the same measures were 32 nM and 11 nM.
In the case of `COc1cc2nccc(Oc3ccc(NC(=O)OCCCOc4cccc(F)c4)cc3)c2cc1OC` [Example 147, 3-(3-Fluorophenoxy)propyl N-{4-[(6,7-dimethoxy-4-quinolyl)oxy]phenyl}carbamate], the figures for the half-inhibitory concentration (IC50) in experiment [1] and in experiment [2] were under 30 nM and 11 nM, respectively.
Consider `COc1cc2nccc(Oc3ccc(NC(=O)OCCCOc4cccc(F)c4)c(C)c3C)c2cc1OC` [Example 148, 3-(3-Fluorophenoxy)propyl N-{4-[(6,7-dimethoxy-4-quinolyl)oxy]-2,3-dimethylphenyl}carbamate], for which the IC50 was under 30 nM in experiment [1] and under 10 nM in experiment [2].
The corresponding values for `COc1cc2nccc(Oc3cc(C)c(NC(=O)OCCCOc4cccc(F)c4)cc3C)c2cc1OC` [Example 149, 3-(3-Fluorophenoxy)propyl N-{4-[(6,7-dimethoxy-4-quinolyl)oxy]-2,5-dimethylphenyl}carbamate] are 49 nM and 19 nM.
For `COc1cc2ncnc(Oc3ccc(NC(=O)OCCCOc4cccc(F)c4)cc3)c2cc1OC` [Example 150, 3-(3-Fluorophenoxy)propyl N-{4-[(6,7-dimethoxy-4-quinazolinyl)oxy]phenyl}carbamate] the same measures were 38 nM and under 10 nM.
The corresponding values for `COc1cc2ncnc(Oc3ccc(NC(=O)OCCCOc4cccc(F)c4)c(C)c3C)c2cc1OC` [Example 151, 3-(3-Fluorophenoxy)propyl N-{4-[(6,7-dimethoxy-4-quinazolinyl)oxy]-2,3-dimethylphenyl}carbamate] are 32 nM and 12 nM.
For `COc1cc2nccc(Oc3ccc(NC(=O)OCCCOc4ccc(F)cc4)cc3)c2cc1OC` [Example 152, 3-(4-Fluorophenoxy)propyl N-{4-[(6,7-dimethoxy-4-quinolyl)oxy]phenyl}carbamate], the IC50 in experiment [1] is under 30 nM; in experiment [2], under 10 nM.
For `COc1cc2nccc(Oc3ccc(NC(=O)OCCCOc4ccc(F)cc4)c(C)c3C)c2cc1OC` [Example 153, 3-(4-Fluorophenoxy)propyl N-{4-[(6,7-dimethoxy-4-quinolyl)oxy]-2,3-dimethylphenyl}carbamate], the IC50 in experiment [1] was under 30 nM; in experiment [2], under 10 nM.
For `COc1cc2nccc(Oc3cc(C)c(NC(=O)OCCCOc4ccc(F)cc4)cc3C)c2cc1OC` [Example 154, 3-(4-Fluorophenoxy)propyl N-{4-[(6,7-dimethoxy-4-quinolyl)oxy]-2,5-dimethylphenyl}carbamate] the same measures were 61 nM and 40 nM.
For `COc1cc2ncnc(Oc3ccc(NC(=O)OCCCOc4ccc(F)cc4)cc3)c2cc1OC` [Example 155, 3-(4-Fluorophenoxy)propyl N-{4-[(6,7-dimethoxy-4-quinazolinyl)oxy]phenyl}carbamate] the same measures were 41 nM and 14 nM.
As to `COc1cc2ncnc(Oc3ccc(NC(=O)OCCCOc4ccc(F)cc4)c(C)c3C)c2cc1OC` [Example 156, 3-(4-Fluorophenoxy)propyl N-{4-[(6,7-dimethoxy-4-quinazolinyl)oxy]-2,3-dimethylphenyl}-carbamate], the IC50 in experiment [1] turned out to be 33 nM. For the same compound, in experiment [2], the inhibition at 0.1 µM was 48% and the IC50 is over 100 nM.
Take `COc1cc2nccc(Oc3ccc(NC(=O)OCCCOc4ccccc4OC)cc3)c2cc1OC` [Example 157, 3-(2-Methoxyphenoxy)propyl N-{4-[(6,7-dimethoxy-4-quinolyl)oxy]phenyl}carbamate]: the 50% inhibitory concentration (IC50) was 35 nM in experiment [1] and under 10 nM in experiment [2].
The corresponding values for `COc1cc2nccc(Oc3ccc(NC(=O)OCCCOc4ccccc4OC)c(C)c3C)c2cc1OC` [Example 158, 3-(2-Methoxyphenoxy)propyl N-{4-[(6,7-dimethoxy-4-quinolyl)oxy]-2,3-dimethylphenyl}carbamate] are 107 nM and 12 nM.

One may read the IC50 as the point on the concentration scale where inhibition reaches its midpoint. The term inhibition denotes the percentage by which the read-out fell short of the control.
